Measured values: ChEMBL document CHEMBL1201862, “PubChem BioAssay data set” (2004)
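Following 48 hours of exposure in 96-well plates, responses at five concentrations were used to interpolate endpoints linearly. The concentration for 50% growth inhibition is given as GI50.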 Activity calls are given as the source filed them. No stated cut-off is given here; in the data, active = GI50 up to about 1.1 µM and inactive = higher.

Assays:
Assay in all cases: growth of human tumour cells (NCI), 48 h
MOLT-4 = test system: MOLT-4
UACC-257 = test system: UACC-257
DMS-114 = test system: DMS-114
RPMI-8226 = test system: RPMI-8226
786-0 = test system: 786-0
NCI-H23 = test system: NCI-H23
SNB-75 = test system: SNB-75
COLO 205 = test system: COLO 205
SK-MEL-28 = test system: SK-MEL-28
RXF 393 = test system: RXF 393
SK-MEL-5 = test system: SK-MEL-5
HCT-15 = test system: HCT-15
ACHN = test system: ACHN
LOX IMVI = test system: LOX IMVI
M19-MEL = test system: M19-MEL
LXFL 529 = test system: LXFL 529
TK-10 = test system: TK-10
IGROV-1 = test system: IGROV-1
SK-OV-3 = test system: SK-OV-3
HL-60 = test system: HL-60
UACC-62 = test system: UACC-62
OVCAR-5 = test system: OVCAR-5
SN12C = test system: SN12C
HT-29 = test system: HT-29
SR = test system: SR
KM-20L2 = test system: KM-20L2
DMS-273 = test system: DMS-273
NCI-H522 = test system: NCI-H522
OVCAR-3 = test system: OVCAR-3
OVCAR-8 = test system: OVCAR-8
M14 = test system: M14
NCI-H460 = test system: NCI-H460
A549 = test system: A549
U-251 = test system: U-251
DLD-1 = test system: DLD-1
SK-MEL-2 = test system: SK-MEL-2
Malme-3M = test system: Malme-3M
SW-620 = test system: SW-620
SF-268 = test system: SF-268
K562 = test system: K562
EKVX = test system: EKVX
CCRF-CEM = test system: CCRF-CEM
HCT-116 = test system: HCT-116
SF-295 = test system: SF-295
SNB-78 = test system: SNB-78
UO-31 = test system: UO-31
HCC 2998 = test system: HCC 2998
CAKI-1 = test system: CAKI-1
SF-539 = test system: SF-539
SNB-19 = test system: SNB-19
OVCAR-4 = test system: OVCAR-4
NCI-H226 = test system: NCI-H226
A498 = test system: A498
HOP-92 = test system: HOP-92
NCI/ADR-RES = test system: NCI/ADR-RES
KM12 = test system: KM12
HOP-62 = test system: HOP-62
MCF7 = test system: MCF7
Hs-578T = test system: Hs-578T
MDA-MB-435 = test system: MDA-MB-435
BT-549 = test system: BT-549
PC-3 = test system: PC-3
T47D = test system: T47D
DU-145 = test system: DU-145
MDA-MB-231 = test system: MDA-MB-231
MDA-N = test system: MDA-N

Measured: GI50

CC1=C[P+](Cc2ccccc2)(c2ccccc2)CC1 (configuration not stated)
inactive: MOLT-4 > 100 µM | UACC-257 21.5 µM | DMS-114 35.2 µM | RPMI-8226 28.6 µM | 786-0 > 100 µM | NCI-H23 > 100 µM | SNB-75 > 100 µM | COLO 205 41.5 µM | SK-MEL-28 81.1 µM | RXF 393 > 100 µM | SK-MEL-5 27 µM | ACHN > 100 µM | LOX IMVI > 100 µM | M19-MEL 29.9 µM | LXFL 529 23.3 µM | TK-10 98.9 µM | IGROV-1 96.8 µM | SK-OV-3 > 100 µM | HL-60 36.3 µM | UACC-62 66.5 µM | OVCAR-5 > 100 µM | SN12C > 100 µM | HT-29 77.3 µM | SR 57 µM | KM-20L2 94.2 µM | DMS-273 > 100 µM | NCI-H522 65.2 µM | OVCAR-3 47.8 µM | OVCAR-8 > 100 µM | M14 77.6 µM | NCI-H460 > 100 µM | A549 > 100 µM
88.1 µM: HCT-15

O=CCCn1[nH]c(=O)ccc1=O
inactive: MOLT-4 > 100 µM | UACC-257 > 100 µM | DMS-114 > 100 µM | U-251 > 100 µM | RPMI-8226 > 100 µM | 786-0 > 100 µM | NCI-H23 > 100 µM | SNB-75 > 100 µM | SK-MEL-28 > 100 µM | RXF 393 > 100 µM | SK-MEL-5 > 100 µM | ACHN > 100 µM | LOX IMVI > 100 µM | M19-MEL > 100 µM | DLD-1 > 100 µM | SK-MEL-2 > 100 µM | TK-10 > 100 µM | IGROV-1 > 100 µM | Malme-3M > 100 µM | HL-60 > 100 µM | SW-620 > 100 µM | SF-268 > 100 µM | K562 > 100 µM | UACC-62 > 100 µM | EKVX > 100 µM | OVCAR-5 > 100 µM | CCRF-CEM > 100 µM | SN12C > 100 µM | HCT-116 > 100 µM | SF-295 > 100 µM | SNB-78 > 100 µM | HT-29 > 100 µM | UO-31 > 100 µM | HCC 2998 > 100 µM | CAKI-1 > 100 µM | SF-539 > 100 µM | SR > 100 µM | KM-20L2 > 100 µM | DMS-273 > 100 µM | OVCAR-3 > 100 µM | SNB-19 > 100 µM | OVCAR-8 > 100 µM | OVCAR-4 > 100 µM | NCI-H226 > 100 µM | M14 > 100 µM | NCI-H460 > 100 µM | A498 > 100 µM | A549 > 100 µM | HOP-92 > 100 µM
> 100 µM: HCT-15

COc1ccc(C(SCC(N)C(=O)O)(c2ccc(OC)cc2)c2ccc(OC)cc2)cc1 (configuration not stated)
inactive: MOLT-4 12.6 µM | NCI/ADR-RES 10.6 µM | UACC-257 11.9 µM | KM12 6.32 µM | U-251 14.8 µM | RPMI-8226 15.9 µM | 786-0 13.4 µM | NCI-H23 12.4 µM | HOP-62 13 µM | SNB-75 11.3 µM | COLO 205 12.4 µM | SK-MEL-28 11.8 µM | RXF 393 8.47 µM | SK-MEL-5 > 10 µM | MCF7 8.63 µM | ACHN 12 µM | LOX IMVI 9.02 µM | SK-MEL-2 12 µM | TK-10 14.9 µM | IGROV-1 13.3 µM | SK-OV-3 21.2 µM | Malme-3M 10.8 µM | HL-60 14 µM | SW-620 > 10 µM | SF-268 13.4 µM | Hs-578T 12.2 µM | K562 10 µM | UACC-62 10.7 µM | EKVX 13.7 µM | OVCAR-5 13.9 µM | CCRF-CEM 13.7 µM | SN12C 12.7 µM | MDA-MB-435 2.97 µM | HCT-116 6.98 µM | BT-549 12.8 µM | SF-295 11.8 µM | PC-3 11.1 µM | HT-29 10.6 µM | UO-31 11.9 µM | HCC 2998 12.9 µM | CAKI-1 17.3 µM | SF-539 12.9 µM | SR 6.27 µM | NCI-H522 14.1 µM | T47D 12.2 µM | DU-145 > 10 µM | OVCAR-3 12.2 µM | SNB-19 14.1 µM | OVCAR-8 12.4 µM | OVCAR-4 13.8 µM | NCI-H226 13.2 µM | MDA-MB-231 13.2 µM | M14 10.2 µM | NCI-H460 11.3 µM | A498 14.7 µM | A549 17.1 µM | HOP-92 14.7 µM | MDA-N 3.5 µM
11.6 µM: HCT-15
